# Bridge positions count the residues as written; N and C are the ends. Peptide text beside a SMILES is read from it.
# How the values were obtained:
# E. coli GFPuv = type: cell-based, Escherichia coli
# Protocol: E. coli GFPuv bacteria (contribution from Dr. Tsafi Danieli, head of the Protein Expression Facility at the Hebrew University of Jerusalem, Israel) were grown in LB broth (BD) and induced to express the Green Fluorescent Protein (GFP) in auto-induction medium, as previously described by F.W. Studier[31]. Briefly, bacteria were cultured for 3 h at 37 °C while shaking at 200 rpm, in induction medium ZYP-5052 containing 1% N-Z amine AS, 0.5% yeast extract, 50 mM Na2HPO4, 50 mM KH2HPO4, 25 mM (NH4)2SO4, 2 mM MgSO4, 0.5% glycerol, 0.05% glucose and 0.2% lactose. For the bacterium visualization experiment, 2 × 10^6 colony-forming units (CFU) were treated by 16 µg/mL OMN6 or Double-Distilled Water (DDW) for 60 min. Bacteria were monitored with a confocal microscope at a wavelength of 488 nm. Then, bacteria were seeded on LB agar (BD) plates, incubated at 37 °C for 24 h, and CFU were counted. For the supernatant visualization and quantification experiment, 10^5 CFU were co-incubated with 50 µM OMN6 or DDW for 30 min, and bacteria were collected and centrifuged at 5000 rpm for 10 min. Experiment tubes were visualized under UV light. Then, supernatants were collected, and the absence of a significant quantity of bacteria in the supernatants was checked in a microplate reader by absorbance at 600 nm (OD < 0.05). Fluorescence levels were then quantified with excitation at 395 nm and emission at 509 nm.
# [1] = system: Gram-positive strains (S. aureus, E. faecium, E. faecalis, B. cereus); assay: MIC, broth microdilution (CLSI), summary over strains; type: cell-based; conditions: E. faecalis and B. cereus, summary of Table 1
# Excerpt: (Italy), an Evotec Company.
# Proteinase-K = target: T1, Proteinase-K (Parengyodontium album, UniProt P06873); assay: Peptide stability to Proteinase-K (SDS-PAGE); type: in vitro ADME; conditions: 10 µg peptide with 5 or 20 ng Proteinase-K (0.16 or 0.66 µg/mL), 2 h, 37 °C; 15% acrylamide SDS-PAGE, Coomassie stain
# T1 construct: purchased Sigma-Aldrich
# T1 sequence (P06873 106-384): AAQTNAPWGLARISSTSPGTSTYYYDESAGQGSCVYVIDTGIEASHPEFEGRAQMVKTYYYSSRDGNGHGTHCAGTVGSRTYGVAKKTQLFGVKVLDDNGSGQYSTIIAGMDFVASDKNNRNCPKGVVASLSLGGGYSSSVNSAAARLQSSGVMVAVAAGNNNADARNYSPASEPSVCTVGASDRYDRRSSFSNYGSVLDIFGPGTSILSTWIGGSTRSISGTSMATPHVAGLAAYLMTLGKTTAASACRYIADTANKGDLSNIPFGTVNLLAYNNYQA
# Protocol: 10 µg of synthetic cecropin A (Genscript, Piscataway, NJ, USA), OMN6, or bovine serum albumin (BSA; Sigma-Aldrich, St. Louis, MO, USA) were incubated with 5 or 20 ng Proteinase-K (Sigma-Aldrich; final treatment concentration of 0.16 or 0.66 µg/mL respectively) for 2 h at 37 °C, and separated on a 15% acrylamide gel (Bio-Rad, Hercules, CA, USA) by SDS-PAGE. The gel was then stained with Coomassie dye and excess color was removed over-night.
# mouse red blood cells = assay: Hemolysis assay; type: cell-based; conditions: 10% mouse erythrocytes, 6.25–200 µM (27–868 µg/mL), 1 h, 37 °C, absorbance 400 nm
# Protocol: Red Blood Cells (RBCs) suspension was prepared from whole blood extracted from the heart of Hsd:ICR (CD-1) mice (Envigo, Huntingdon, Cambridgeshire, UK). The study was carried out in accordance with relevant guidelines and regulations, and was approved by the Hebrew University Ethics Committee for the Care and Use of Laboratory Animals under approval number NS-15-14575-3. Briefly, blood was collected in a 24 U/mL heparin tube to prevent coagulation. Then cells were washed with Phosphate Buffered Saline (PBS; Biological Industries) and centrifuged at 200g for 10 min at 20 °C. This operation was repeated three times, then remaining RBCs were resuspended in saline or PBS to form a 10% RBC solution. Increasing concentrations of OMN6 or 1% Tween were added to RBCs. After an incubation of 1 h at 37 °C with shaking at 100 rpm, experiment tubes were centrifuged for 10 min at 200g at room temperature. 100 µL supernatant was extracted from each tube and tested according to the Hemoglobin Assay Kit (Sigma-Aldrich). Hemoglobin levels were determined via absorbance at 400 nm.
# HEK293T cells = type: cell-based
# Protocol: HEK-293T17 cells (ATCC CRL-1573) were purchased from ATCC and cultured to 80% confluency according to the ATCC culture method, using high-glucose and L-Glutamine Dulbecco's Modified Eagle Medium (DMEM) medium (ATCC catalog number 30-2002) supplemented with 10% fetal bovine serum and 1% Penicillin–Streptomycin solution (all from Biological Industries). For the experiment purposes, 30,000 cells were transferred to a 96-well plate (experiment plate) in a final volume of 100 µL of medium. The experiment plate was incubated at 5% CO2 and 37 °C for approximately 18 h. After 18 h, medium was discarded, and cells were co-incubated with OMN6, Melittin (Sigma-Aldrich) or dimethyl sulfoxide (DMSO; MP Biomedical LLC, Solon, OH, USA) that were prepared in new medium at desired concentrations. The experiment plate was incubated at 5% CO2 and 37 °C for 24 h. Then, glutaraldehyde at a final concentration of 0.5% was added in all wells for 10 min for cell fixation. After washing the plate 3 times with DDW, the experiment plate was dried overnight. Then, cells were washed with 0.1 M Borate buffer (pH = 8.5) for 1 min. 100 µL Methylene Blue diluted in the same Borate buffer was added to all wells for 1 h. Wells were washed with DDW and plate was dried overnight. Color extraction was executed by adding 0.1 M HCl. After an incubation at 37 °C for 1 h, cell survival was determined via absorbance at 620 nm using a microplate reader.
smiles,measurement,setting,value
CC[C@H](C)[C@@H]1NC(=O)CNC(=O)[C@H](CC(=O)O)NC(=O)[C@H](CCCNC(=N)N)NC(=O)[C@H]([C@@H](C)CC)NC(=O)[C@H](CC(N)=O)NC(=O)[C@H](CCC(N)=O)NC(=O)CNC(=O)[C@H](C(C)C)NC(=O)[C@H](CCCCN)NC(=O)[C@H](CCC(=O)O)NC(=O)[C@H]([C@@H](C)CC)NC(=O)[C@H](CCCCN)NC(=O)[C@H](CCCCN)NC(=O)[C@H](Cc2ccccc2)NC(=O)[C@H](CC(C)C)NC(=O)[C@H](CCCCN)NC(=O)[C@H](Cc2c[nH]c3ccccc23)NC(=O)[C@H](CCCCN)NC(=O)[C@@H](NC(=O)[C@@H](N)CCSC)CSSC[C@@H](C(N)=O)NC(=O)[C@H](CCCCN)NC(=O)[C@H](C)NC(=O)[C@H]([C@@H](C)CC)NC(=O)[C@H](CCC(N)=O)NC(=O)[C@H]([C@@H](C)O)NC(=O)[C@H](C)NC(=O)[C@H](CCC(N)=O)NC(=O)CNC(=O)[C@H](C(C)C)NC(=O)[C@H](C(C)C)NC(=O)[C@H](C)NC(=O)[C@H](C(C)C)NC(=O)[C@H](C)NC(=O)[C@@H]2CCCN2C(=O)CNC(=O)[C@H](C)NC(=O)[C@H](CCCCN)NC(=O)[C@H]([C@@H](C)CC)NC1=O [OMN6] (H-MCKWKLFKKIEKVGQNIRDGIIKAGPAVAVVGQATQIAKC-NH2; disulfide 2-40; N-terminus assumed),"Reduction in fluorescence arbitrary units (FU) of a bacterium, T = 0 h to T = 1 h (GFP leakage)","E. coli GFPuv; 16 µg/mL, 60 min, confocal microscope 488 nm, single bacterium","12,000 FU"
same,CFU on agar plates after treatment (bacterial death),"E. coli GFPuv; 2 × 10^6 CFU, 16 µg/mL, 60 min, then LB agar 37 °C 24 h, data not shown",No CFU
same,Level of fluorescence (FU) in supernatants vs DDW control,"E. coli GFPuv; E. coli GFPuv 10^5 CFU, 50 µM, 30 min, centrifuged 5000 rpm, excitation 395 nm, emission 509 nm, p = 0.01",distinct increase
same,MIC on all tested Gram-positive strains,[1],> 256 mg/L
same,Stability after exposure to Proteinase-K,Proteinase-K,remained intact
same,Hemolysis expressed as free Hemoglobin,mouse red blood cells,no hemolysis
same,Survival rate of HEK293T cells,"HEK293T cells; 6.25–200 µM (27–868 µg/mL), 24 h, Methylene Blue, absorbance 620 nm, all concentrations",not affected
same,Therapeutic window (no toxicity to mammalian cells vs MIC value against Gram-negative bacterial species),HEK293T cells; relative to MIC against Gram-negative species,larger than tenfold

# Reference: publication PMC7988117, “OMN6 a novel bioengineered peptide for the treatment of multidrug resistant Gram negative bacteria” (Scientific Reports, 2021)
